Laboratory results taken from patent US11814352B2, “Salts formed by 2-(1-acyloxy-n-pentyl) benzoic acid and basic amino acid or aminoguanidine, and preparation method and application thereof” (JIANGSU KANION PHARMACEUTICAL CO., LTD., priority 2018, dated 2023).
Read-outs that look alike come from different tables or passages of the source. Each block holds one molecule with its values, some of them ahead of it.

Assays:
[1] = system: AA induced platelet aggregation; experiment: In vitro anti-platelet aggregation, AA induced (turbidimetry, PRP); type: cell-based, rabbits
Procedure: (§1) The animals were used for experiments after 1 week.
(§2) The common carotid artery was separated, and a polyethylene tube was inserted into the common carotid artery to collect blood. […] The upper beige suspension was pipetted to obtain the platelet-rich plasma (PRP). […] The PRP was adjusted with the PPP to make the platelet count at 1×10^8/mL.
(§3) 260 μL of platelet-rich plasma (PRP) was added into a turbidimetric tube. Then 10 μL of test compounds with different concentrations, positive control drugs or normal saline were separately added, and the plasma was incubated at 37° C. for 5 min. Then 30 μL of inducers were added in sequence. The final concentration of an inducer ADP is 10 μM, and the final concentration of an inducer AA is 1 mM. […] Inhibition rate of platelet aggregation (IRPA)=(platelet aggregation rate of the control group−platelet aggregation rate of the experimental group)/platelet aggregation rate of the control group×100%.

[2] = system: ADP induced platelet aggregation; experiment: In vitro anti-platelet aggregation, ADP induced (turbidimetry, PRP); type: cell-based, rabbits
Procedure: as §1, §2, §3

MCAO rats = experiment: Cerebral infarction, cerebral edema and nerve function of rats with focal cerebral ischemia (MCAO); type: in vivo, SD rats; details: for inhibition at 10 mg/kg/day: Rattus norvegicus
Procedure: The total number of the animals was 88.
Sham operation group: equal volume of normal saline (containing 1% DMSO) (iv. 3 days), TTC, cerebral edema and neurological function score (n=8); […]
The middle cerebral arteries of the rats were blocked by a suture-occluded method, and reperfused after 2 h. […] All drugs were formulated into normal saline solutions containing 1% DMSO for administration, and the duration of administration was controlled at approximately 1 min. […] 2 h after the last administration, the neurological defect scores were firstly obtained, and then the rats of each group were sacrificed. The whole brains were taken out and weighed (wet weight), TTC stained, and dried to determine the effects of the compounds on cerebral infarction and cerebral edema.
2 h after the last administration, the neurological defects of the animals were graded and scored by the Longa's method.
After the neurobehavioral examination was completed, four coronal incisions were made on the whole brains of the rats on the optic chiasma and 2 mm anteroposterior positions of the optic chiasma. After the whole brains were cut into five slices, the brain slices were quickly placed in 5 ml of phosphate buffer solution containing 2% TTC, and incubated at 37° C. in the dark. In the incubation process, the brain slices were turned once every 5 min. After 10 min of incubation, the brain slices were taken out and pictures were taken with a digital camera (Olympus C-4000, Japan).
The calculation formula of brain water content is as follows: Water content of brain tissue (%)=(wet weight of brain tissue−dry weight of brain tissue)/wet weight of brain tissue×100%; Cerebral edema rate (%)=water content of brain tissue of each group (%)−water content of brain tissue of sham operation group (%)/water content of brain tissue of sham operation group (%)×100%; Inhibition rate of cerebral edema (%)=(rate of cerebral edema of model group (%)−rate of cerebral edema of administration group (%))/rate of cerebral edema of model group (%)×100%.

[3] = system: arteriovenous bypass thrombosis in rats; experiment: Effect on arteriovenous bypass thrombosis in rats; type: in vivo, SD rats; details: 10 mg/kg/day tail vein 7 days; for inhibition at 10 mg/kg/day: Rattus norvegicus, 168 h, vs model group
Procedure: Male SD rats, weighing 250-280 g, purchased from Beijing Vital River Laboratory Animal Technology Co., Ltd., raised in an SPF breeding environment with indoor temperature controlled at 23±2° C., and allowed to freely eat and drink. The total number of the animals is 64.
Model group: injected with the same volume of normal saline (containing 1% DMSO) through the tail vein, and administered continuously for 7 days. The test was started 2 h after the last dose (n=8).
The dose of all drugs was 10 mg/kg/day. The drugs were formulated into normal saline solutions containing 1% DMSO, and injected through the tail vein for 7 consecutive days. The test was started 2 hours after the last dose (n=8).
The rats were intraperitoneally injected with a 3% pentobarbital sodium solution (30 mg/kg). After anesthesia, the rats were immobilized in the supine position, and a median cervical incision was made to separate the right common carotid artery and left external jugular vein. A 6 cm long suture was put in the middle of a polyethylene tube (the suture needs to be weighed before being put in the tube), and the polyethylene tube was filled with heparin saline (50 U/mL). The polyethylene tube was inserted into the separated blood vessels to make the artery and vein form a loop. After 15 min of circulation of the blood flow, the suture was taken out, and the suture with thrombus was collected and weighed immediately. Then, after the suture was dried at room temperature for 24 h, the dry weight was determined. The total weight minus the weight of the suture was the wet weight of the thrombus, and the dry weight minus the weight of the suture was the dry weight of the thrombus.

[4] = read-out: IC50 AA (1 mM), rabbit PRP, inducer AA 1 mM, 37° C.
[5] = read-out: IC50 ADP (10 μM), rabbit PRP, inducer ADP 10 μM, 37° C.
[6] = iv 2 h after the beginning of reperfusion, 5 mg/kg
[7] = iv 2 h after the beginning of reperfusion, 10 mg/kg
[8] = iv 2 h after the beginning of reperfusion, 20 mg/kg
[9] = iv at the beginning of reperfusion, 5 mg/kg
[10] = iv at the beginning of reperfusion, 10 mg/kg
[11] = iv at the beginning of reperfusion, 20 mg/kg
[12] = Oryctolagus cuniculus, Platelet, read-out: IC50 AA (1 mM), rabbit PRP, inducer AA 1 mM, 37° C.
[13] = Oryctolagus cuniculus, Platelet, read-out: IC50 ADP (10 μM), rabbit PRP, inducer ADP 10 μM, 37° C.
[14] = MCAO rats, 10 mg/kg/day iv 3 days (combinations equimolar), first dose 2 h after reperfusion

SMILES: CCCCC(OC(C)=O)c1ccccc1C(=O)O (racemic) [(R/S)-APB, (R/S)-2-(1-acetoxy-n-pentyl)benzoic acid]
- IC50 [1, 4]: 470 ± 40 µM
- IC50 [2, 5]: 810 ± 40 µM

SMILES: CCCCC(O)c1ccccc1C(=O)O.N=C(N)NCCC[C@H](N)C(=O)O (racemic) [AHPB, L-Arginine (R/S)-2-(1-Hydroxy-n-Pentyl) Benzoate]
- Cerebral edema (MCAO rats; [6]): 6.50 ± 1.86%
- Infarct volume (MCAO rats; [6]): 37.54 ± 6.94%
- Inhibition rate of cerebral edema (MCAO rats; [6]): 31.12%
- Inhibition rate of infarct volume (MCAO rats; [6]): 24.34%
- Cerebral edema (MCAO rats; [7]): 3.03 ± 2.87%
- Infarct volume (MCAO rats; [7]): 25.70 ± 4.75%
- Inhibition rate of cerebral edema (MCAO rats; [7]): 67.94%
- Inhibition rate of infarct volume (MCAO rats; [7]): 48.19%
- Cerebral edema (MCAO rats; [8]): 1.64 ± 3.36%
- Infarct volume (MCAO rats; [8]): 23.56 ± 5.29%
- Inhibition rate of cerebral edema (MCAO rats; [8]): 82.57%
- Inhibition rate of infarct volume (MCAO rats; [8]): 52.51%
- Cerebral edema (MCAO rats; [9]): 5.94 ± 2.45%
- Infarct volume (MCAO rats; [9]): 29.98 ± 4.99%
- Inhibition rate of cerebral edema (MCAO rats; [9]): 38.82%
- Inhibition rate of infarct volume (MCAO rats; [9]): 39.06%
- Cerebral edema (MCAO rats; [10]): 2.01 ± 2.91%
- Infarct volume (MCAO rats; [10]): 19.83 ± 3.95%
- Inhibition rate of cerebral edema (MCAO rats; [10]): 79.34%
- Inhibition rate of infarct volume (MCAO rats; [10]): 59.69%
- Cerebral edema (MCAO rats; [11]): 2.08 ± 4.58%
- Infarct volume (MCAO rats; [11]): 17.71 ± 4.65%
- Inhibition rate of cerebral edema (MCAO rats; [11]): 78.57%
- Inhibition rate of infarct volume (MCAO rats; [11]): 64.00%
- Effects of improving cerebral infarction, cerebral edema and neurological function compared with NBP (5 mg/kg) (MCAO rats; low-dose 5 mg/kg iv, at reperfusion or 2 h after): no significant difference
- Improving the neurological function compared with NBP (5 mg/kg) (MCAO rats; middle and high doses 10, 20 mg/kg iv): equivalent to NBP (5 mg/kg)
- IC50 [1, 4]: 340 ± 40 µM
- IC50 [2, 5]: 980 ± 210 µM

SMILES: CCCCC(OC(=O)CC)c1ccccc1C(=O)O (racemic) [I2, L-Arginine (R/S)-2-(1-Propionyloxy-n-Pentyl) Benzoate]
- IC50 [1, 12]: 190 ± 20 µM
- IC50 [2, 13]: 650 ± 40 µM

SMILES: CCCCC(OC(=O)CCC)c1ccccc1C(=O)O (racemic) [I3, L-Arginine (R/S)-2-(1-N-Butyryloxy-n-Pentyl) Benzoate]
- IC50 [1, 12]: 520 ± 30 µM
- IC50 [2, 13]: 1260 ± 70 µM

SMILES: CCCCC(OC(=O)c1ccccc1)c1ccccc1C(=O)O (racemic) [I4, L-Arginine (R/S)-2-(1-Benzoyloxy-n-Pentyl) Benzoate]
- IC50 [1, 4]: 170 ± 70 µM
- IC50 [2, 5]: 820 ± 50 µM

SMILES: CCCCC(OC(C)=O)c1ccccc1C(=O)O (racemic) [I5, L-Lysine (R/S)-2-(1-Acetoxy-n-Pentyl) Benzoate]
- IC50 [1, 12]: 460 ± 30 µM
- IC50 [2, 13]: 1150 ± 80 µM

SMILES: CCCCC(OC(C)=O)c1ccccc1C(=O)O.N[C@@H](Cc1c[nH]cn1)C(=O)O (racemic) [I6, L-Histidine (R/S)-2-(1-Acetoxy-n-Pentyl) Benzoate]
- IC50 [1, 4]: 140 ± 10 µM
- IC50 [2, 5]: 770 ± 50 µM

SMILES: CCCCC(OC(C)=O)c1ccccc1C(=O)O.N=C(N)NN (racemic) [I7, Aminoguanidine (R/S)-2-(1-Acetoxy-n-Pentyl) Benzoate]
- IC50 [1, 4]: 280 ± 70 µM
- IC50 [2, 5]: 1180 ± 60 µM

SMILES: CCCC[C@@H](OC(C)=O)c1ccccc1C(=O)O [(R)-APB, (R)-2-(1-acetoxy-n-pentyl)benzoic acid]
- IC50 [1, 12]: 190 ± 20 µM
- IC50 [2, 13]: 760 ± 70 µM

- IC50 [1, 4]: 660 ± 70 µM
- IC50 [2, 5]: 1600 ± 150 µM
SMILES: CCCC[C@H]1OC(=O)c2ccccc21 [(R)-NBP, (R)-butylphthalide]

SMILES: CC1=NN(c2ccccc2)C(=O)C1 [Edaravone]
- Cerebral edema (MCAO rats; [14]): 4.49 ± 4.84%
- Infarct volume (MCAO rats; [14]): 14.29 ± 2.58%
- inhibition at 10 mg/kg/day (MCAO rats; MCAO rats, 10 mg/kg/day iv 3 days (combinations equimolar), first dose 2 h after reperfusion, read-out: Inhibition rate of cerebral edema): 72%
- inhibition at 10 mg/kg/day (MCAO rats; MCAO rats, 10 mg/kg/day iv 3 days (combinations equimolar), first dose 2 h after reperfusion, read-out: Inhibition rate of infarct volume): 65.8%
- Dry weight of thrombus ([3]; 2 h after last dose): 8.23 ± 0.53
- Wet weight of thrombus ([3]; 2 h after last dose): 24.95 ± 1.20
- inhibition at 10 mg/kg/day ([3]; read-out: Inhibition rate (dry weight of thrombus)): 18.1%
- inhibition at 10 mg/kg/day ([3]; read-out: Inhibition rate (wet weight of thrombus)): 31.1%

SMILES: CCCC[C@@H](OC(C)=O)c1ccccc1C(=O)O.N=C(N)NN [I7r, Aminoguanidine (R)-2-(1-Acetoxy-n-Pentyl) Benzoate]
- IC50 [1, 4]: 210 ± 10 µM
- IC50 [2, 5]: 940 ± 50 µM

SMILES: CCCC[C@H](OC(C)=O)c1ccccc1C(=O)O.N=C(N)NN [I7s, Aminoguanidine (S)-2-(1-Acetoxy-n-Pentyl) Benzoate]
- Cerebral edema (MCAO rats; [14]): 12.34 ± 4.57%
- Infarct volume (MCAO rats; [14]): 24.83 ± 2.02%
- Inhibition rate of cerebral edema (MCAO rats; [14]): 23.07%
- Inhibition rate of infarct volume (MCAO rats; [14]): 40.67%
- IC50 [1, 4]: 120 ± 10 µM
- IC50 [2, 5]: 680 ± 30 µM

SMILES: N=C(N)NCCC[C@H](N)C(=O)O [L-arginine]
- IC50 [1, 12]: 5130 ± 650 µM
- IC50 [2, 13]: 5860 ± 690 µM
